Experiments:
[1] = system: female Aedes aegypti (Thailand strain) mosquitoes; assay: Contact irritancy assay on mosquitoes (Example 2); assay type: in vivo; details: netting treated at 0.0025-2.5 nmol/cm^2; 10 minutes
Description: (§1) Four compounds of formula (I) were tested for contact irritancy (i.e., movement away from the source after physical contact) at low doses on female Aedes aegypti (Thailand strain) mosquitoes. The contact irritant response was determined by use of the contact irritant assay disclosed by Grieco et al. in “A New Classification System for the Actions of IRS Chemicals Traditionally Used for Malaria Control,” Plos One, Issue 8 (2007) (available at www.plosone.org). The assay used was a cylindrical assembly that included a metal treatment end to which 10 mosquitoes were introduced and a clear receiving chamber. The treatment end included a netting strip (nylon organdy) that was treated with the insecticide of interest at the relevant dose. A butterfly valve separated the treatment end from the remainder of the assembly.
(§2) Each composition was applied to the netting strip at a varied dose via a 1.5 ml acetone solution. Four (4) treatment concentrations were used—0.0025 nmol/cm^2, 0.025 nmol/cm^2, 0.25 nmol/cm^2 and 2.5 nmol/cm^2. Netting was allowed to dry for 15 minutes prior to placement in the cylinder. Control assays were performed with netting treated with acetone only.
(§3) For each run, 10 mosquitoes were transferred into the treatment end of the assembly and, after 30 seconds, the butterfly valve was opened. The valve was closed after 10 minutes and the number of mosquitoes in the clear end (i.e., the number of escaped mosquitoes) was tested.

[2] = system: female Aedes aegypti (Thailand strain) mosquitoes; assay: Spatial repellency assay on mosquitoes (Example 3); assay type: in vivo; details: netting treated at 0.0025-2.5 nmol/cm^2
Description: (§4) The four compounds of formula I described in Example 2 were tested for spatial repellency (directed movement away from the chemical source without the insect making physical contact with the treated surface) at low doses on female Aedes aegypti (Thailand strain) mosquitoes. The spatial repellency response was determined by use of the spatial repellency assay disclosed by Grieco et al. in “A New Classification System for the Actions of IRS Chemicals Traditionally Used for Malaria Control” in Plos One, Issue 8 (2007) (available at www.plosone.org) which is incorporated herein by reference for all relevant and consistent purposes. The assay used was a cylindrical assembly that included a treatment chamber at one end and a control chamber at the other end. The treatment chamber included a netting strip (nylon organdy) that was treated with the insecticide of interest at the relevant dose. The treatment chamber and control chamber were connected by a clear cylinder and were separated from the clear cylinder by butterfly valves. Twenty (20) mosquitoes were introduced into the clear central chamber and the butterfly valves were opened after 30 seconds. After 10 minutes, the valves were closed and the number of mosquitoes in each chamber was counted.
The compositions were applied to the net strips by the same methods and at the same concentrations as described in Example 2 above. […]

[3] = system: female Aedes aegypti (Thailand strain) mosquitoes; assay: Contact irritancy and spatial repellency screening (Example 4); assay type: in vivo; details: Dosage 25 nmol/cm^2; mapped with 3000 other compounds
Description: as §1, §4
Dosage was 25 nmol/cm^2. Several known compounds were also mapped for comparison—alphacypermethrin, cypermethrin, propoxur, bendiocarb, permethrin, SS220, DDT, deet and chlorpyrifos.

[4] = system: Ae. Aegypti, That strain (pyrethroid tolerant); assay: Contact irritancy on pyrethroid tolerant mosquitoes (Example 5); assay type: in vivo
Description: as §1, §2, §3
(§5) The contact irritancy protocol of Example 2 was used to determine contact irritancy against mosquitoes (Ae. Aegypti) that had acquired metabolic resistance against pyrethroids. Alphacypermethrin and transfluthrin were also tested. Three mosquito strains were tested—Houston which is pyrethroid susceptible, That which is pyrethroid tolerant and Isla Mujer which is metabolically pyrethroid resistant.

[5] = system: Ae. Aegypti, Isla Mujer strain (metabolically pyrethroid resistant); assay: Contact irritancy on metabolically resistant mosquitoes (Example 5); assay type: in vivo
Description: as §1, §2, §3, §5

[6] = system: Ae. Aegypti strains Houston, That and Isla Mujer; assay: Spatial repellency on metabolically resistant mosquitoes (Example 6); assay type: in vivo
Description: as §4
as §5, with “spatial repellency” for “contact irritancy”, “3” for “2”, “DDT” for “Alphacypermethrin”

[7] = system: Ae. aegypti Houston strain (pyrethroid susceptible); assay: Toxicity assay on treated netting (Example 7), Houston strain; assay type: in vivo
Description: (§6) Several compounds were tested to determine their toxic effect on Ae. aegypti mosquitoes. Three mosquito strains were tested—Houston which is pyrethroid susceptible, That which is pyrethroid tolerant and Isla Mujer which is metabolically pyrethroid resistant.
(§7) The toxicity assay involved a single chamber to which treated netting was added. Twenty (20) mosquitoes were transferred to the chamber. After 1 hour, the number of knocked down mosquitoes was recorded and all mosquitoes were transferred to holding cartoons. The mosquitoes were given a 10% sucrose-soaked cotton ball and returned to the insectary. Mortaility was measured after 24 hours. A control assay using acetone-treated netting was used. Six replicates were performed at each treatment concentration.

[8] = system: Ae. aegypti Thai strain (pyrethroid tolerant); assay: Toxicity assay on treated netting (Example 7), Thai strain; assay type: in vivo
Description: as §6, §7

[9] = system: Ae. aegypti Isla mujeres strain (metabolically pyrethroid resistant); assay: Toxicity assay on treated netting (Example 7), Isla mujeres strain; assay type: in vivo
Description: as §6, §7

An. Vestitipennis = details: stated as identical to night one of compound 1405; cited from earlier work
[10] = Dose 0.025 nm/cm^2, Time 1 hour
[11] = Dose 0.025 nm/cm^2, Time 24 hours
[12] = Dose 0.05 nm/cm^2, Time 24 hours
[13] = Dose 0.0725 nm/cm^2, Time 1 hour
[14] = Dose 0.0725 nm/cm^2, Time 24 hours
[15] = Dose 0.1 nm/cm^2, Time 24 hours
[16] = Dose 0.125 nm/cm^2, Time 1 hour
[17] = Dose 0.125 nm/cm^2, Time 24 hours
[18] = Dose 0.2 nm/cm^2, Time 24 hours
[19] = Dose 0.25 nm/cm^2, Time 24 hours
[20] = Dose 2.5 nm/cm^2, Time 24 hours

Q: What does the source list for `CC1(C)C(C=C(F)F)C1C(=O)OCc1ccc(F)c(C(F)(F)F)c1F` (stereo not shown) [Compound 1403]?
A: contact irritancy (FIG. 1) [1]: showed contact irritancy at relatively low doses; spatial repellency, dose compared with DDT (FIG. 2) [2]: showed repellency at a lower dose than DDT; contact irritancy and spatial repellency relative to screened compounds (FIG. 3) [3]: superior contact irritancy and spatial repellency relative to most screened compounds; contact irritancy, tolerant strain (FIG. 4) [4]: contact irritants for tolerant strains; contact irritancy, resistant strain (FIG. 4) [5]: effective in resistant strains; spatial repellency, all strains (FIG. 5) [6]: spatial repellants for all strains; Houston (% dead (SE)) [7, 10]: 11.76%; Houston (% dead (SE)) [7, 11]: 15.57%; Houston (% dead (SE)) ([7]; Dose 0.05 nm/cm^2, Time 1 hour): 51.3%; Houston (% dead (SE)) [7, 12]: 41.18%; Houston (% dead (SE)) [7, 13]: 100%; Houston (% dead (SE)) [7, 14]: 100%; Houston (% dead (SE)) ([7]; Dose 0.1 nm/cm^2, Time 1 hour): 100%; Houston (% dead (SE)) [7, 15]: 100%; Houston (% dead (SE)) [7, 16]: 100%; Houston (% dead (SE)) [7, 17]: 100%; Houston (% dead (SE)) ([7]; Dose 0.2 nm/cm^2, Time 1 hour): 100%; Houston (% dead (SE)) [7, 18]: 100%; Houston (% dead (SE)) ([7]; Dose 0.25 nm/cm^2, Time 1 hour): 100%; Houston (% dead (SE)) [7, 19]: 100%; Houston (% dead (SE)) ([7]; Dose 2.5 nm/cm^2, Time 1 hour): 100%; Houston (% dead (SE)) [7, 20]: 100%; Thai (% dead (SE)) [8, 10]: 15%; Thai (% dead (SE)) [8, 11]: 0%; Thai (% dead (SE)) ([8]; Dose 0.25 nm/cm^2, Time 1 hour): 100%; Thai (% dead (SE)) [8, 19]: 100%; Thai (% dead (SE)) ([8]; Dose 2.5 nm/cm^2, Time 1 hour): 100%; Thai (% dead (SE)) [8, 20]: 100%; Isla mujeres (% dead (SE)) [9, 10]: 0%; Isla mujeres (% dead (SE)) [9, 11]: 1.58%; Isla mujeres (% dead (SE)) ([9]; Dose 0.05 nm/cm^2, Time 1 hour): 0%; Isla mujeres (% dead (SE)) [9, 12]: 5.93%; Isla mujeres (% dead (SE)) [9, 13]: 0%; Isla mujeres (% dead (SE)) [9, 14]: 3.70%; Isla mujeres (% dead (SE)) ([9]; Dose 0.1 nm/cm^2, Time 1 hour): 0%; Isla mujeres (% dead (SE)) [9, 15]: 5.00%; Isla mujeres (% dead (SE)) [9, 16]: 0%; Isla mujeres (% dead (SE)) [9, 17]: 6.00%; Isla mujeres (% dead (SE)) ([9]; Dose 0.2 nm/cm^2, Time 1 hour): 70%; Isla mujeres (% dead (SE)) [9, 18]: 20%; Isla mujeres (% dead (SE)) ([9]; Dose 0.25 nm/cm^2, Time 1 hour): 100%; Isla mujeres (% dead (SE)) [9, 19]: 100%; Isla mujeres (% dead (SE)) ([9]; Dose 2.5 nm/cm^2, Time 1 hour): 100%; Isla mujeres (% dead (SE)) [9, 20]: 100%; toxicity to resistant populations compared with standard compounds ([9]; summary of Table 2): more toxic to resistant populations than permethrin, matfluthrin and transfluthrin

Q: With `Clc1ccc(C(c2ccc(Cl)cc2)C(Cl)(Cl)Cl)cc1` [DDT, dichlorodiphenyltrichloroethane] as the molecule, how does the “reduction in entering populations observed with DDT” value (An. Vestitipennis) read?
A: Its value is 97%.
